# According to ChEMBL document CHEMBL5712083, “Regulation of Epstein-Barr Virus Life Cycle and Cell Proliferation by Histone H3K27 Methyltransferase EZH2 in Akata Cells” (mSphere, 2018):
# Calls of active or inactive are those of the source. The rule behind the calls is not given here.
# Columns and labels:
# Type in all cases: cell-based
# [1] = target: Histone-lysine N-methyltransferase EZH2 (Homo sapiens) (UniProt Q15910); assay: Inhibition of EZH2 in human EBV-positive Akata cells assessed as increase in lytic gene LMP1 at 1 uM after 3 days by qRT-PCR analysis relative control; settings: time 3.0 day
# [2] = target: Histone-lysine N-methyltransferase EZH2 (Homo sapiens) (UniProt Q15910); assay: Inhibition of EZH2 in human EBV-positive Akata cells assessed as reduction in H3K27me3 levels at 1 uM after 3 days by CHIP assay; settings: time 3.0 day
# [3] = target: Histone-lysine N-methyltransferase EZH2 (Homo sapiens) (UniProt Q15910); assay: Inhibition of EZH2 in human EBV-positive Akata cells assessed as reduction in H3K27me3 levels at 1 uM after 3 days by Western blot analysis; settings: time 3.0 day
# [4] = target: Histone-lysine N-methyltransferase EZH2 (Homo sapiens) (UniProt Q15910); assay: Inhibition of EZH2 in human EBV-positive Akata cells assessed as effect on lytic gene LMP2 at 1 uM after 3 days by qRT-PCR analysis; settings: time 3.0 day
# [5] = target: Histone-lysine N-methyltransferase EZH2 (Homo sapiens) (UniProt Q15910); assay: Inhibition of EZH2 in human EBV-positive Akata cells assessed as effect on lytic gene EBNA1 at 1 uM after 3 days by qRT-PCR analysis; settings: time 3.0 day
# [6] = target: Histone-lysine N-methyltransferase EZH2 (Homo sapiens) (UniProt Q15910); assay: Inhibition of EZH2 in human EBV-positive Akata cells assessed as effect on lytic gene EBNA2 at 1 uM after 3 days by qRT-PCR analysis; settings: time 3.0 day
# [7] = target: Histone-lysine N-methyltransferase EZH2 (Homo sapiens) (UniProt Q15910); assay: Inhibition of EZH2 in human EBV-positive Akata cells assessed as effect on lytic gene EBER1 at 1 uM after 3 days by qRT-PCR analysis; settings: time 3.0 day
# [8] = target: Histone-lysine N-methyltransferase EZH2 (Homo sapiens) (UniProt Q15910); assay: Inhibition of EZH2 in human EBV-positive Akata cells assessed as effect on lytic gene BARTs at 1 uM after 3 days by qRT-PCR analysis; settings: time 3.0 day
# [9] = target: Histone-lysine N-methyltransferase EZH2 (Homo sapiens) (UniProt Q15910); assay: Inhibition of EZH2 in human EBV-positive Akata cells assessed as effect on lytic gene BZLF1 at 1 uM after 3 days by qRT-PCR analysis; settings: time 3.0 day
# [10] = target: Histone-lysine N-methyltransferase EZH2 (Homo sapiens) (UniProt Q15910); assay: Inhibition of EZH2 in human EBV-positive Akata cells assessed as effect on lytic gene gp350/200 at 1 uM after 3 days by qRT-PCR analysis; settings: time 3.0 day
# [11] = target: Histone-lysine N-methyltransferase EZH2 (Homo sapiens) (UniProt Q15910); assay: Inhibition of EZH2 in human EBV-positive Akata cells assessed as increase in lytic gene LMP1 at 1 uM for 3 days followed by addition of ant-IgG for lytic induction for 2 days by qRT-PCR analysis relative to control; settings: time 5.0 day
# [12] = target: Histone-lysine N-methyltransferase EZH2 (Homo sapiens) (UniProt Q15910); assay: Inhibition of EZH2 in human EBV-positive Akata cells assessed as effect on lytic gene LMP2 at 1 uM for 3 days followed by addition of ant-IgG for lytic induction for 2 days by qRT-PCR analysis; settings: time 5.0 day
# [13] = target: Histone-lysine N-methyltransferase EZH2 (Homo sapiens) (UniProt Q15910); assay: Inhibition of EZH2 in human EBV-positive Akata cells assessed as effect on lytic gene EBNA1 at 1 uM for 3 days followed by addition of ant-IgG for lytic induction for 2 days by qRT-PCR analysis; settings: time 5.0 day
# [14] = target: Histone-lysine N-methyltransferase EZH2 (Homo sapiens) (UniProt Q15910); assay: Inhibition of EZH2 in human EBV-positive Akata cells assessed as effect on lytic gene EBNA2 at 1 uM for 3 days followed by addition of ant-IgG for lytic induction for 2 days by qRT-PCR analysis; settings: time 5.0 day
# [15] = target: Histone-lysine N-methyltransferase EZH2 (Homo sapiens) (UniProt Q15910); assay: Inhibition of EZH2 in human EBV-positive Akata cells assessed as effect on lytic gene EBER1 at 1 uM for 3 days followed by addition of ant-IgG for lytic induction for 2 days by qRT-PCR analysis; settings: time 5.0 day
# [16] = target: Histone-lysine N-methyltransferase EZH2 (Homo sapiens) (UniProt Q15910); assay: Inhibition of EZH2 in human EBV-positive Akata cells assessed as effect on lytic gene BARTs at 1 uM for 3 days followed by addition of ant-IgG for lytic induction for 2 days by qRT-PCR analysis; settings: time 5.0 day
# [17] = target: Histone-lysine N-methyltransferase EZH2 (Homo sapiens) (UniProt Q15910); assay: Inhibition of EZH2 in human EBV-positive Akata cells assessed as effect on lytic gene BZLF1 at 1 uM for 3 days followed by addition of ant-IgG for lytic induction for 2 days by qRT-PCR analysis; settings: time 5.0 day
# [18] = target: Histone-lysine N-methyltransferase EZH2 (Homo sapiens) (UniProt Q15910); assay: Inhibition of EZH2 in human EBV-positive Akata cells assessed as effect on lytic gene gp350/200 at 1 uM for 3 days followed by addition of ant-IgG for lytic induction for 2 days by qRT-PCR analysis; settings: time 5.0 day
# [19] = target: Histone-lysine N-methyltransferase EZH2 (Homo sapiens) (UniProt Q15910); assay: Inhibition of EZH2 in human EBV-positive Akata cells assessed as effect on cell viability at 1 uM
# [20] = target: Histone-lysine N-methyltransferase EZH2 (Homo sapiens) (UniProt Q15910); assay: Inhibition of EZH2 (unknown origin) in Lymphoblastoid cells assessed as reduction in H3K27me3 levels at 1 uM after 3 days by Western blot analysis; settings: Lymphoblastoid cell, time 3.0 day
# [21] = target: Histone-lysine N-methyltransferase EZH2 (Homo sapiens) (UniProt Q15910); assay: Inhibition of EZH2 (unknown origin) in Lymphoblastoid cells assessed as reduction in H3K27me3 levels at 1 uM after 3 days by CHIP assay; settings: Lymphoblastoid cell, time 3.0 day
# [22] = target: Histone-lysine N-methyltransferase EZH2 (Homo sapiens) (UniProt Q15910); assay: Inhibition of EZH2 (unknown origin) in Lymphoblastoid cells assessed as effect on lytic gene LMP1 at 1 uM for 3 days followed by addition of TPA, A23187 and sodium butyrate for lytic induction for 2 days by qRT-PCR analysis relative to control; settings: Lymphoblastoid cell, time 5.0 day
# [23] = target: Histone-lysine N-methyltransferase EZH2 (Homo sapiens) (UniProt Q15910); assay: Inhibition of EZH2 (unknown origin) in Lymphoblastoid cells assessed as effect on lytic gene LMP2 at 1 uM for 3 days followed by addition of TPA, A23187 and sodium butyrate for lytic induction for 2 days by qRT-PCR analysis; settings: Lymphoblastoid cell, time 5.0 day
# [24] = target: Histone-lysine N-methyltransferase EZH2 (Homo sapiens) (UniProt Q15910); assay: Inhibition of EZH2 (unknown origin) in Lymphoblastoid cells assessed as effect on lytic gene EBNA1 at 1 uM for 3 days followed by addition of TPA, A23187 and sodium butyrate for lytic induction for 2 days by qRT-PCR analysis; settings: Lymphoblastoid cell, time 5.0 day
# [25] = target: Histone-lysine N-methyltransferase EZH2 (Homo sapiens) (UniProt Q15910); assay: Inhibition of EZH2 (unknown origin) in Lymphoblastoid cells assessed as effect on lytic gene EBNA2 at 1 uM for 3 days followed by addition of TPA, A23187 and sodium butyrate for lytic induction for 2 days by qRT-PCR analysis; settings: Lymphoblastoid cell, time 5.0 day
# [26] = target: Histone-lysine N-methyltransferase EZH2 (Homo sapiens) (UniProt Q15910); assay: Inhibition of EZH2 (unknown origin) in Lymphoblastoid cells assessed as effect on lytic gene EBER1 at 1 uM for 3 days followed by addition of TPA, A23187 and sodium butyrate for lytic induction for 2 days by qRT-PCR analysis; settings: Lymphoblastoid cell, time 5.0 day
# [27] = target: Histone-lysine N-methyltransferase EZH2 (Homo sapiens) (UniProt Q15910); assay: Inhibition of EZH2 (unknown origin) in Lymphoblastoid cells assessed as effect on lytic gene BARTs at 1 uM for 3 days followed by addition of TPA, A23187 and sodium butyrate for lytic induction for 2 days by qRT-PCR analysis; settings: Lymphoblastoid cell, time 5.0 day
# [28] = target: Histone-lysine N-methyltransferase EZH2 (Homo sapiens) (UniProt Q15910); assay: Inhibition of EZH2 (unknown origin) in Lymphoblastoid cells assessed as effect on lytic gene BZLF1 at 1 uM for 3 days followed by addition of TPA, A23187 and sodium butyrate for lytic induction for 2 days by qRT-PCR analysis; settings: Lymphoblastoid cell, time 5.0 day
# [29] = target: Histone-lysine N-methyltransferase EZH2 (Homo sapiens) (UniProt Q15910); assay: Inhibition of EZH2 (unknown origin) in Lymphoblastoid cells assessed as effect on lytic gene gp350/200 at 1 uM for 3 days followed by addition of TPA, A23187 and sodium butyrate for lytic induction for 2 days by qRT-PCR analysis; settings: Lymphoblastoid cell, time 5.0 day
# Sequence of Histone-lysine N-methyltransferase EZH2 (Homo sapiens) (Q15910 whole entry, looked up): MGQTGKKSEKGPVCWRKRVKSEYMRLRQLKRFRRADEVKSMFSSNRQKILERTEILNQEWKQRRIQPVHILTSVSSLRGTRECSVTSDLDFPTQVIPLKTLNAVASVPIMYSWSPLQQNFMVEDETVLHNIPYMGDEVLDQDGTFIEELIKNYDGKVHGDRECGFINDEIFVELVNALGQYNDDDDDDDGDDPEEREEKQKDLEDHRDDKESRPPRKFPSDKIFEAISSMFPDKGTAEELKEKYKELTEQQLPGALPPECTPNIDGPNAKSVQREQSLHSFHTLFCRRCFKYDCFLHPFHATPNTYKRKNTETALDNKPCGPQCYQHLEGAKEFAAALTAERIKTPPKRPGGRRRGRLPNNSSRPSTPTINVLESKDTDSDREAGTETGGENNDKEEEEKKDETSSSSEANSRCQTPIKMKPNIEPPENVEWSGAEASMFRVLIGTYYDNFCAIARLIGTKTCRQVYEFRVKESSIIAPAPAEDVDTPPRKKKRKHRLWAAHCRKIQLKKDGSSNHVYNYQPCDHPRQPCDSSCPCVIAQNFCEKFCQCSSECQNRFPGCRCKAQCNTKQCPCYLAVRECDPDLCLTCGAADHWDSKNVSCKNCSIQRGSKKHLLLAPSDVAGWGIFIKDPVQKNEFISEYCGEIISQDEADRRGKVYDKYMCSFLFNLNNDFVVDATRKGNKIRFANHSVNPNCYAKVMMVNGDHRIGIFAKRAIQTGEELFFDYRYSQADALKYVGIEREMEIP
smiles,measurement,setting,value
CCCc1cc(C)[nH]c(=O)c1CNC(=O)c1cc(-c2ccnc(N3CCN(C)CC3)c2)cc2c1cnn2C(C)C,fold change (FC),[1],2.6
same,inhibition,[2],Active
same,inhibition,[3],Active
same,inhibition,[4],inactive
same,inhibition,[5],inactive
same,inhibition,[6],inactive
same,inhibition,[7],inactive
same,inhibition,[8],inactive
same,inhibition,[9],inactive
same,inhibition,[10],inactive
same,fold change (FC),[11],6.7
same,inhibition,[12],inactive
same,inhibition,[13],inactive
same,inhibition,[14],inactive
same,inhibition,[15],inactive
same,inhibition,[16],inactive
same,inhibition,[17],inactive
same,inhibition,[18],inactive
same,inhibition,[19],inactive
same,inhibition,[20],Active
same,inhibition,[21],Active
same,fold change (FC),[22],8.3
same,inhibition,[23],inactive
same,inhibition,[24],inactive
same,inhibition,[25],inactive
same,inhibition,[26],inactive
same,inhibition,[27],inactive
same,inhibition,[28],inactive
same,inhibition,[29],inactive
